Data on one compound can be found in ChEMBL document CHEMBL4390652, “Design, biological evaluation and X-ray crystallography of nanomolar multifunctional ligands targeting simultaneously acetylcholinesterase and glycogen synthase kinase-3” (Eur J Med Chem, 2019).

Assay [1] concerns the target Serine/threonine-protein kinase PAK 1 (Homo sapiens) (UniProt Q13153). Kind of assay: Binding affinity to wild-type human partial length PAK1 (S149 to H545 residues) expressed in bacterial expression system assessed as residual binding level at 10 uM by Kinomescan method relative to control.
The subject of assay [2] is Phosphatidylinositol 4,5-bisphosphate 3-kinase catalytic subunit alpha isoform (Homo sapiens), P42336 [E542K]. As to the kind of experiment: Binding affinity to human partial length PIK3CA E542K mutant (R108 to N1068 residues) expressed in mammalian expression system assessed as residual binding level at 10 uM by Kinomescan method relative to control.
In assay [3] the target is Serine/threonine-protein kinase mTOR (Homo sapiens) (UniProt P42345). Kind of assay: Binding affinity to wild-type human partial length MTOR (L1382 to W2549 residues) expressed in mammalian expression system assessed as residual binding level at 10 uM by Kinomescan method relative to control.
Assay [4] concerns the target Tyrosine-protein kinase FRK (Homo sapiens) (UniProt P42685). Kind of assay: Binding affinity to wild-type human partial length FRK (A215 to F503 residues) expressed in bacterial expression system assessed as residual binding level at 10 uM by Kinomescan method relative to control.
The target of assay [5] is Mitogen-activated protein kinase 13 (Homo sapiens) (UniProt O15264). As to the kind of experiment: Binding affinity to wild-type human full length p38-delta (M1 to L365 residues) expressed in bacterial expression system assessed as residual binding level at 10 uM by Kinomescan method relative to control.
For assay [6], the target named is Insulin-like growth factor 1 receptor (Homo sapiens) (UniProt P08069). Kind of assay: Binding affinity to wild-type human partial length IGF1R (L972 to D1294 residues) expressed in bacterial expression system assessed as residual binding level at 10 uM by Kinomescan method relative to control.
Assay [7] concerns the target Serine/threonine-protein kinase D2 (Homo sapiens) (UniProt Q9BZL6). Kind of assay: Binding affinity to wild-type human partial length PRKD2 (A519 to E838 residues) expressed in bacterial expression system assessed as residual binding level at 10 uM by Kinomescan method relative to control.
In assay [8] the target is SRSF protein kinase 1 (Homo sapiens) (UniProt Q96SB4). Kind of assay: Binding affinity to wild-type human full length SRPK1 (M1 to S655 residues) expressed in bacterial expression system assessed as residual binding level at 10 uM by Kinomescan method relative to control.
For assay [9], the target named is Protein-tyrosine kinase 6 (Homo sapiens) (UniProt Q13882). Kind of assay: Binding affinity to wild-type human partial length BRK (L166 to T451 residues) expressed in bacterial expression system assessed as residual binding level at 10 uM by Kinomescan method relative to control.
Assay [10] deals with Serine/threonine-protein kinase 35 (Homo sapiens) (UniProt Q8TDR2). As to the kind of experiment: Binding affinity to wild-type human partial length STK35 (G182 to A534 residues) expressed in bacterial expression system assessed as residual binding level at 10 uM by Kinomescan method relative to control.
The target in assay [11] is Ephrin type-A receptor 8 (Homo sapiens) (UniProt P29322). Kind of assay: Binding affinity to wild-type human partial length EPHA8 (Q608 to C920 residues) expressed in bacterial expression system assessed as residual binding level at 10 uM by Kinomescan method relative to control.
In assay [12] the target is Wee1-like protein kinase (Homo sapiens) (UniProt P30291). Kind of assay: Binding affinity to wild-type human partial length WEE1 (M291 to K575 residues) expressed in bacterial expression system assessed as residual binding level at 10 uM by Kinomescan method relative to control.
In assay [13] the target is Homeodomain-interacting protein kinase 1 (Homo sapiens) (UniProt Q86Z02). Kind of assay: Binding affinity to wild-type human partial length HIPK1 (M146 to I555 residues) expressed in mammalian expression system assessed as residual binding level at 10 uM by Kinomescan method relative to control.
Assay [14] has as its target Mitogen-activated protein kinase kinase kinase 14 (Homo sapiens) (UniProt Q99558). As to the kind of experiment: Binding affinity to wild-type human partial length NIK (L318 to P947 residues) expressed in mammalian expression system assessed as residual binding level at 10 uM by Kinomescan method relative to control.
For assay [15], the target named is Serine/threonine-protein kinase WNK2 (Homo sapiens) (UniProt Q9Y3S1). As to the kind of experiment: Binding affinity to wild-type human partial length WNK2 (V47 to D482 residues) expressed in mammalian expression system assessed as residual binding level at 10 uM by Kinomescan method relative to control.
The target of assay [16] is Mitogen-activated protein kinase kinase kinase kinase 5 (Homo sapiens) (UniProt Q9Y4K4). As to the kind of experiment: Binding affinity to wild-type human partial length MAP4K5 (M1 to P297 residues) expressed in bacterial expression system assessed as residual binding level at 10 uM by Kinomescan method relative to control.
Assay [17] has as its target Tyrosine-protein kinase TXK (Homo sapiens) (UniProt P42681). Kind of assay: Binding affinity to wild-type human partial length TXK (L238 to W527 residues) expressed in bacterial expression system assessed as residual binding level at 10 uM by Kinomescan method relative to control.
Assay [18] has as its target Serine/threonine-protein kinase/endoribonuclease IRE1 (Homo sapiens) (UniProt O75460). As to the kind of experiment: Binding affinity to wild-type human partial length ERN1 (S551 to E852 residues) expressed in mammalian expression system assessed as residual binding level at 10 uM by Kinomescan method relative to control.
For assay [19], the target named is Vascular endothelial growth factor receptor 1 (Homo sapiens) (UniProt P17948). As to the kind of experiment: Binding affinity to wild-type human partial length FLT1 (R781 to F1239 residues) expressed in bacterial expression system assessed as residual binding level at 10 uM by Kinomescan method relative to control.
Assay [20] addresses Ephrin type-B receptor 6 (Homo sapiens) (UniProt O15197). As to the kind of experiment: Binding affinity to wild-type human partial length EPHB6 (Q634 to P948 residues) expressed in mammalian expression system assessed as residual binding level at 10 uM by Kinomescan method relative to control.
The target of assay [21] is Proto-oncogene tyrosine-protein kinase ROS (Homo sapiens) (UniProt P08922). Kind of assay: Binding affinity to wild-type human partial length ROS1 (A1921 to N2240 residues) expressed in bacterial expression system assessed as residual binding level at 10 uM by Kinomescan method relative to control.
In assay [22] the target is Tyrosine-protein kinase CSK (Homo sapiens) (UniProt P41240). Kind of assay: Binding affinity to wild-type human full length CSK (M1 to L450 residues) expressed in bacterial expression system assessed as residual binding level at 10 uM by Kinomescan method relative to control.
Assay [23] concerns the target Myosin light chain kinase, smooth muscle (Homo sapiens) (UniProt Q15746). As to the kind of experiment: Binding affinity to wild-type human full length MYLK (M854 to E1845 residues) expressed in mammalian expression system assessed as residual binding level at 10 uM by Kinomescan method relative to control.
In assay [24] the target is Tyrosine-protein kinase Lck (Homo sapiens) (UniProt P06239). Kind of assay: Binding affinity to wild-type human partial length LCK (R207 to P509 residues) expressed in bacterial expression system assessed as residual binding level at 10 uM by Kinomescan method relative to control.

Chain of Vascular endothelial growth factor receptor 1 (Homo sapiens) (P17948 whole entry, the tested form may be a part): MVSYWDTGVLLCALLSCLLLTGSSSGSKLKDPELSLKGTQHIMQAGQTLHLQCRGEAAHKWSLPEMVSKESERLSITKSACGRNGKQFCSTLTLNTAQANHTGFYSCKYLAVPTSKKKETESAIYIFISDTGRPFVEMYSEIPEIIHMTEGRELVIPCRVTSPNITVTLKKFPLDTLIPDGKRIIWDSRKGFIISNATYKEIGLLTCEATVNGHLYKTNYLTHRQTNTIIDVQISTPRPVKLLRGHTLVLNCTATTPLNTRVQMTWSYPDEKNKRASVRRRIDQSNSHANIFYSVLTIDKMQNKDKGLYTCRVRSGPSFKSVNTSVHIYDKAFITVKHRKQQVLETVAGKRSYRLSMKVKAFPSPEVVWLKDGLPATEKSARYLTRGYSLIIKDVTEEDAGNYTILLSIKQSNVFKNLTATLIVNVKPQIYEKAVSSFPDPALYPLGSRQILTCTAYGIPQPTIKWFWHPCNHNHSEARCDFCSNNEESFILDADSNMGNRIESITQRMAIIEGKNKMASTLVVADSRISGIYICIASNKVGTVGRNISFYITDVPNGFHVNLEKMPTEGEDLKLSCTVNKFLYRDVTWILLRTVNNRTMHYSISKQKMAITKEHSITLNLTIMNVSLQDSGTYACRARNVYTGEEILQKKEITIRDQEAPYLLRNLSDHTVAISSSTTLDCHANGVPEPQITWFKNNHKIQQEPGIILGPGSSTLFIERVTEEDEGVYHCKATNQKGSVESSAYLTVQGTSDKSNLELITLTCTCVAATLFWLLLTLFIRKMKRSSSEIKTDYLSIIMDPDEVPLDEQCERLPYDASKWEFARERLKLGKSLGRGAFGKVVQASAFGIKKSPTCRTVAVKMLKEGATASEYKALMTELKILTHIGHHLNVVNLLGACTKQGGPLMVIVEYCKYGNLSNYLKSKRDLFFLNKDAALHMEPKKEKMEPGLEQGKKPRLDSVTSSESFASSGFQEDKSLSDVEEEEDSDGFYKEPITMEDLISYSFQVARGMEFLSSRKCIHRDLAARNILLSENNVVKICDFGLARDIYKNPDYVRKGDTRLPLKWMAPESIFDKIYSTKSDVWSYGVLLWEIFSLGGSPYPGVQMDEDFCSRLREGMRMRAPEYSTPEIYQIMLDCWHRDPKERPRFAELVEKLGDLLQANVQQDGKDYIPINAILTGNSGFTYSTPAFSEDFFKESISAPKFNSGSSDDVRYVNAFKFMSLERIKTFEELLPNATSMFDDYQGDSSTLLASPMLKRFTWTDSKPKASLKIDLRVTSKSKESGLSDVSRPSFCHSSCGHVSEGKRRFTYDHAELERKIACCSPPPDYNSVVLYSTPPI
Chain of Tyrosine-protein kinase FRK (Homo sapiens) (P42685 whole entry, the tested form may be a part): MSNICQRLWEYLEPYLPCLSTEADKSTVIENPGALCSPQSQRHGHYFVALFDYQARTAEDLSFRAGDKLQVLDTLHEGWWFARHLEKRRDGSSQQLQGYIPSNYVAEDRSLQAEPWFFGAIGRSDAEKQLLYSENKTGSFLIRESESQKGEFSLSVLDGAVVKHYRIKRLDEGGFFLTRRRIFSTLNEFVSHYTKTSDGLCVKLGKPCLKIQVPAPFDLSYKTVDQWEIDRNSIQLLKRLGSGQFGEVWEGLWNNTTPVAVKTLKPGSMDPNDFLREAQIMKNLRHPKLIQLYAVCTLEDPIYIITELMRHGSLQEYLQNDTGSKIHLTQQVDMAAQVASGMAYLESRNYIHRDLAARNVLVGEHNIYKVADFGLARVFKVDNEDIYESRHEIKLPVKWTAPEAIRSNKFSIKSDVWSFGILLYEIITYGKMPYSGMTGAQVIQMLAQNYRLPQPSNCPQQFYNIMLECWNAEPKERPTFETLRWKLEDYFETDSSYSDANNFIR
Chain of Ephrin type-B receptor 6 (Homo sapiens) (O15197 whole entry, the tested form may be a part): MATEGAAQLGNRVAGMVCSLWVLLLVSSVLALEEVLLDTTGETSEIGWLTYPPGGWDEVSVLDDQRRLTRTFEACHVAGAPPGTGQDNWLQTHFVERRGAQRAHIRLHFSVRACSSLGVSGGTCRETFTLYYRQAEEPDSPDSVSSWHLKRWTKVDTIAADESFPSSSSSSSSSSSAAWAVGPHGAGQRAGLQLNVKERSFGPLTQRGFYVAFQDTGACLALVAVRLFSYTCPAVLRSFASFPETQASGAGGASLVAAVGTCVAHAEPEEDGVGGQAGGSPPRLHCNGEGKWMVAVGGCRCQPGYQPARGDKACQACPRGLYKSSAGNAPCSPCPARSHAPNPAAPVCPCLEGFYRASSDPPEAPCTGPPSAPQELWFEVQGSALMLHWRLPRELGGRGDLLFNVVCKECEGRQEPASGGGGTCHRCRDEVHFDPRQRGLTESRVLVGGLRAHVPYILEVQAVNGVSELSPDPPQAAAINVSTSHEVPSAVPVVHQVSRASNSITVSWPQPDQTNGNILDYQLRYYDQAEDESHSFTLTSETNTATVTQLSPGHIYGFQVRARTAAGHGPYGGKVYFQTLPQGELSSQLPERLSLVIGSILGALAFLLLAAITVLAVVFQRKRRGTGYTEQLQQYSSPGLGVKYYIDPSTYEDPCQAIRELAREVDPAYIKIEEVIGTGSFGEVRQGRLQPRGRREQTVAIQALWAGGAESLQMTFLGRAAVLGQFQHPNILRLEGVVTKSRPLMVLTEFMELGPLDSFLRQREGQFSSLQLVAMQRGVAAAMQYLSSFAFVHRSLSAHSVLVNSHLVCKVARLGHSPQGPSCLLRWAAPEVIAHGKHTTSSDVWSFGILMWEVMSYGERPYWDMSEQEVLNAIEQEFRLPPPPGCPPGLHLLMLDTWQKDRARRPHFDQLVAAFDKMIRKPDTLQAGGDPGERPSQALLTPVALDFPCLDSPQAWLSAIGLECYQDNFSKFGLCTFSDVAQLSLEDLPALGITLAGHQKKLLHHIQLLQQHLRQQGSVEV
Chain of Mitogen-activated protein kinase 13 (Homo sapiens) (O15264 whole entry, the tested form may be a part): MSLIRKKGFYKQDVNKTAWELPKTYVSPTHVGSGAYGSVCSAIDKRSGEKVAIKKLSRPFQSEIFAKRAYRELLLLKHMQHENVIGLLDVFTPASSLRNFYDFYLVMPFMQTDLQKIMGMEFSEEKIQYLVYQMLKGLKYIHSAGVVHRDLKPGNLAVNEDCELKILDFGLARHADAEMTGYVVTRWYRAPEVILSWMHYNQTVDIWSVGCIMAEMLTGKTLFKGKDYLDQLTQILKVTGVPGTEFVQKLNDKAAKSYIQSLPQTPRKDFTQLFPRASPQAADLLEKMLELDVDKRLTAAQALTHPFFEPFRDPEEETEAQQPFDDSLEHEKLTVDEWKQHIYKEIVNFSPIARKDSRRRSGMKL
Chain of Homeodomain-interacting protein kinase 1 (Homo sapiens) (Q86Z02 whole entry, looked up, the tested form may be a part): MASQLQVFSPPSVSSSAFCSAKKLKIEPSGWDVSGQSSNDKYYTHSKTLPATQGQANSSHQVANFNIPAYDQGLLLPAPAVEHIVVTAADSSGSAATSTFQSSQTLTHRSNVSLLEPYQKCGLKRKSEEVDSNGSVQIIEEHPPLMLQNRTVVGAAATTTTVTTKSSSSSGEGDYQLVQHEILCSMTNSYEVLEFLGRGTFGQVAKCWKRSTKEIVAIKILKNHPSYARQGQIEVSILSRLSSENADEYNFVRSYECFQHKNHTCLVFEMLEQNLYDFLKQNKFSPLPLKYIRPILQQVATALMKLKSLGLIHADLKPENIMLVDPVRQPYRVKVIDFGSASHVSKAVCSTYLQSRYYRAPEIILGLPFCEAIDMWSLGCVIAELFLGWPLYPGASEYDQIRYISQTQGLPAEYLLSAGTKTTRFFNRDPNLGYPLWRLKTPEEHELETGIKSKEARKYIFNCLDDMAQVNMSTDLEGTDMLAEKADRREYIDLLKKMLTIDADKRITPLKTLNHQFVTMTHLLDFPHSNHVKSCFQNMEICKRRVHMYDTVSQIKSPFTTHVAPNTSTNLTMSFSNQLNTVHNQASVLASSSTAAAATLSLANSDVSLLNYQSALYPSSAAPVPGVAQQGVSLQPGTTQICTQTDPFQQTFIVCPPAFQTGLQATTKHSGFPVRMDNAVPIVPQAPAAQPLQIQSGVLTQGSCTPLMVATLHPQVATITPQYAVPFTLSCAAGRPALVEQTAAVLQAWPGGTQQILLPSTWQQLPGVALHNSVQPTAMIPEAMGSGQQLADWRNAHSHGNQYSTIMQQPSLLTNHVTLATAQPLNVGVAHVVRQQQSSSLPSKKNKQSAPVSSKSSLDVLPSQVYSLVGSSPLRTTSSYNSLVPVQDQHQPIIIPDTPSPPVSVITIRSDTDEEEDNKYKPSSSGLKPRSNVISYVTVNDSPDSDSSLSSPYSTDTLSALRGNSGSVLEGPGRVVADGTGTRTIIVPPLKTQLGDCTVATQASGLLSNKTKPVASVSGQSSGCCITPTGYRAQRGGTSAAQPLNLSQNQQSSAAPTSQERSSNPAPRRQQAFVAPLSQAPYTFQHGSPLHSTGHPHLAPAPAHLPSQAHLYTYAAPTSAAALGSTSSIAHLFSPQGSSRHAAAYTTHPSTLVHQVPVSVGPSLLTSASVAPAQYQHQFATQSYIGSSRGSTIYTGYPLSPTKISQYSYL
Chain of Serine/threonine-protein kinase PAK 1 (Homo sapiens) (Q13153 whole entry, the tested form may be a part, canonical isoform): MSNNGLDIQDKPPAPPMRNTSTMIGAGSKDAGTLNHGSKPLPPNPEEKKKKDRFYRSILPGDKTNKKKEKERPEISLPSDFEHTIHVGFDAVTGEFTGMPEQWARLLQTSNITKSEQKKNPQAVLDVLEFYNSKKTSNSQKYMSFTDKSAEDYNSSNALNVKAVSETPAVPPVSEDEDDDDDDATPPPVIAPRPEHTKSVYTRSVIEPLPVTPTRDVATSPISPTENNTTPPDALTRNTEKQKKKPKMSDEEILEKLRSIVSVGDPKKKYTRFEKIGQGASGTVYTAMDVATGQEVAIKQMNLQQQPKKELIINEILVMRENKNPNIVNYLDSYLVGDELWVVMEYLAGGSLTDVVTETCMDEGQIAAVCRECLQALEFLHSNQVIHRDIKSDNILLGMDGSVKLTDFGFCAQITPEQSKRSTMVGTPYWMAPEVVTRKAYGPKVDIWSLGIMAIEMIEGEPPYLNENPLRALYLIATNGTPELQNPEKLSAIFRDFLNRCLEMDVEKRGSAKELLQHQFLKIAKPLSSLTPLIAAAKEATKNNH

With `O=C(Nc1cc(-c2cn(CCNc3c4c(nc5ccccc35)CCCC4)nn2)ccn1)Nc1cccc2c1C1CCCCN1C2=O` (racemic), the Activity in [1] is 88%; in assay [2], 72%; in [3], 100%; in assay [4], 99%; in assay [5], 73%; in [6] it was 75%. For the same compound, the Activity came out at 31% in assay [7]; 8.2% in [8]; 90% in assay [9]; 97% in [10]; 80% in assay [11]; 100% in [12]. Also, the Activity in assay [13] was 43%; in [14], 28%; in assay [15], 100%; in [16], 25%; in [17], 95%; in assay [18], 87%. The Activity in assay [19] was found to be 1.6%; in assay [20] it was 13%; in assay [21], 100%; in assay [22] it was 77%; in assay [23] it was 52%; in [24] it was 23%.
